Reference: US10385097B2, “Ether compounds for treatment of medical disorders” (Achillion Pharmaceuticals, Inc., priority 2015, dated 2019)

These compounds were tested against T1, Human Factor D (Homo sapiens, UniProt P00746) (assay: Human Factor D Assay). Conditions: Table 3; Human Factor D 80 nM, substrate Z-L-Lys-SBzl; read-out: (IC50 (Stars)).
T1 construct: purified from human serum; purchased Complement Technology, Inc; host or cells: human serum (natural protein, not recombinant)
T1 sequence (P00746 26-253): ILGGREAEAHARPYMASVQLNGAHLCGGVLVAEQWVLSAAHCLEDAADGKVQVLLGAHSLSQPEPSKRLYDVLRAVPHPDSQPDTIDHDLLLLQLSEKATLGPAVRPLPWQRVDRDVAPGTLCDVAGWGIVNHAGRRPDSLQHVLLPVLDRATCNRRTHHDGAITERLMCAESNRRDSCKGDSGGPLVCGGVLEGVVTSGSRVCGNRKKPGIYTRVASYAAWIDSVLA
Format: biochemical
Method in brief: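 Serum-purified factor D (80 nM final) preincubated 5 min at room temperature with compound in 50 mM Tris, 1 M NaCl, pH 7.5. Reaction started with 100 μM Z-L-Lys-SBzl plus 100 μM DTNB; A405 read every 30 s for 30 min; IC50 by nonlinear regression of rates.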
`CCOP(=O)(COc1ccc2c(c1)c(C(C)=O)cn2CC(=O)N1C[C@H](F)C[C@H]1C(=O)NCCCc1ccccc1)OCC` [Compound 148, diethyl (((3-acetyl-1-(2-((2S,4R)-4-fluoro-2-((3-phenylpropyl)carbamoyl)pyrrolidin-1-yl)-2-oxoethyl)-1H-indol-5-yl)oxy)methyl)phosphonate] gave an IC50 of under 1000 nM. In the case of `CC(=O)c1cn(CC(=O)N2C[C@H](F)C[C@H]2C(=O)NCCCc2ccccc2)c2ccc(OCP(=O)(O)O)cc12` [Compound 149, (((3-Acetyl-1-(2-((2S,4R)-4-fluoro-2-((3-phenylpropyl)carbamoyl)pyrrolidin-1-yl)-2-oxoethyl)-1H-indol-5-yl)oxy)methyl)phosphonic acid], the IC50 is reported as over 10000 nM. Compound `CCOP(=O)(COc1ccc2c(c1)c(C(C)=O)cn2CC(=O)N1C[C@H](F)C[C@H]1C(=O)NCCCCc1ccccc1)OCC` [Compound 150, Diethyl (((3-acetyl-1-(2-((2S,4R)-4-fluoro-2-((4-phenylbutyl)carbamoyl)pyrrolidin-1-yl)-2-oxoethyl)-1H-indol-5-yl)oxy)methyl)phosphonate] has an IC50 of under 1000 nM. Work on `CC(=O)c1cn(CC(=O)N2C[C@H](F)C[C@H]2C(=O)NCCCCc2ccccc2)c2ccc(OCP(=O)(O)O)cc12` [Compound 151, (((3-Acetyl-1-(2-((2S,4R)-4-fluoro-2-((4-phenylbutyl)carbamoyl)pyrrolidin-1-yl)-2-oxoethyl)-1H-indol-5-yl)oxy)methyl)phosphonic acid] yielded an IC50 of over 10000 nM. Work on `CCOP(=O)(COc1ccc2c(c1)c(C(C)=O)cn2CC(=O)N1C[C@H](F)C[C@H]1CCNS(=O)(=O)c1ccccc1)OCC` [Compound 158, Diethyl (((3-acetyl-1-(2-((2R,4R)-4-fluoro-2-(2-(phenylsulfonamido)ethyl)pyrrolidin-1-yl)-2-oxoethyl)-1H-indol-5-yl)oxy)methyl)phosphonate] yielded an IC50 of 1000 to 10000 nM. Work on `CC(=O)c1cn(CC(=O)N2C[C@H](F)C[C@H]2CCNS(=O)(=O)c2ccccc2)c2ccc(OCP(=O)(O)O)cc12` [Compound 159, (((3-Acetyl-1-(2-((2R,4R)-4-fluoro-2-(2-(phenylsulfonamido)ethyl)pyrrolidin-1-yl)-2-oxoethyl)-1H-indol-5-yl)oxy)methyl)phosphonic acid] yielded an IC50 of over 10000 nM. Work on `CCOP(=O)(COc1ccc2c(c1)c(C(C)=O)cn2CC(=O)N1CC[C@H]1C(=O)Nc1cccc(C)n1)OCC` [Compound 163, Diethyl (S)-(((3-acetyl-1-(2-(2-((6-methylpyridin-2-yl)carbamoyl)azetidin-1-yl)-2-oxoethyl)-1H-indol-5-yl)oxy)methyl)phosphonate] yielded an IC50 of over 10000 nM. For `CC(=O)c1cn(CC(=O)N2C[C@H](F)C[C@H]2C(=O)Nc2cncc(Br)n2)c2ccc(Oc3ncc(F)cn3)cc12` [Compound 164, (2S,4R)-1-(2-(3-Acetyl-5-((5-fluoropyrimidin-2-yl)oxy)-1H-indol-1-yl)acetyl)-N-(6-bromopyrazin-2-yl)-4-fluoropyrrolidine-2-carboxamide], the IC50 was under 1000 nM. `CC(=O)c1cn(CC(=O)N2[C@@H]3C[C@@H]3C[C@H]2C(=O)Nc2cncc(Br)n2)c2ccc(Oc3ncc(F)cn3)cc12` [Compound 165, (1R,3S,5R)-2-(2-(3-Acetyl-5-((5-fluoropyrimidin-2-yl)oxy)-1H-indol-1-yl)acetyl)-N-(6-bromopyrazin-2-yl)-2-azabicyclo[3.1.0]hexane-3-carboxamide] showed an IC50 of under 1000 nM. For `CC(=O)c1cn(CC(=O)N2C[C@H](F)C[C@H]2C(=O)Nc2cncc(Br)n2)c2ccc(Oc3ncc(C)cn3)cc12` [Compound 166, (2S,4R)-1-(2-(3-Acetyl-5-((5-methylpyrimidin-2-yl)oxy)-1H-indol-1-yl)acetyl)-N-(6-bromopyrazin-2-yl)-4-fluoropyrrolidine-2-carboxamide], the IC50 was under 1000 nM. Compound `CC(=O)c1nn(CC(=O)N2C[C@H](F)C[C@H]2C(=O)Nc2cncc(Br)n2)c2ccc(Oc3ncc(C)cn3)cc12` [Compound 167, (2S,4R)-1-(2-(3-Acetyl-5-((5-methylpyrimidin-2-yl)oxy)-1H-indazol-1-yl)acetyl)-N-(6-bromopyrazin-2-yl)-4-fluoropyrrolidine-2-carboxamide] has an IC50 of under 1000 nM. Compound `CC(=O)c1nn(CC(=O)N2C[C@H](F)C[C@H]2C(=O)Nc2cncc(Br)n2)c2ccc(Oc3nccc(C)n3)cc12` [Compound 168, (2S,4R)-1-(2-(3-Acetyl-5-((4-methylpyrimidin-2-yl)oxy)-1H-indazol-1-yl)acetyl)-N-(6-bromopyrazin-2-yl)-4-fluoropyrrolidine-2-carboxamide] has an IC50 of under 1000 nM. `CC(=O)c1nn(CC(=O)N2C[C@H](F)C[C@H]2C(=O)Nc2cccc(Br)n2)c2ccc(Oc3ncc(C)cn3)cc12` [Compound 169, (2S,4R)-1-(2-(3-Acetyl-5-((5-methylpyrimidin-2-yl)oxy)-1H-indazol-1-yl)acetyl)-N-(6-bromopyridin-2-yl)-4-fluoropyrrolidine-2-carboxamide] showed an IC50 of under 1000 nM. `CC(=O)c1nn(CC(=O)N2[C@@H]3C[C@@H]3C[C@H]2C(=O)Nc2cncc(Br)n2)c2ccc(Oc3ncc(C)cn3)cc12` [Compound 170, (1R,3S,5R)-2-(2-(3-Acetyl-5-((5-methylpyrimidin-2-yl)oxy)-1H-indazol-1-yl)acetyl)-N-(6-bromopyrazin-2-yl)-2-azabicyclo[3.1.0]hexane-3-carboxamide] showed an IC50 of under 1000 nM. In the case of `CC(=O)c1nn(CC(=O)N2[C@@H]3C[C@@H]3C[C@H]2C(=O)Nc2cccc(Br)n2)c2ccc(Oc3ncc(C)cn3)cc12` [Compound 171, (1R,3S,5R)-2-(2-(3-Acetyl-5-((5-methylpyrimidin-2-yl)oxy)-1H-indazol-1-yl)acetyl)-N-(6-bromopyridin-2-yl)-2-azabicyclo[3.1.0]hexane-3-carboxamide], the IC50 is reported as under 1000 nM. `CC(=O)c1nn(CC(=O)N2C[C@H](F)C[C@H]2C(=O)Nc2nc(Br)ccc2C)c2ccc(Oc3ncc(C)cn3)cc12` [Compound 172, (2S,4R)-1-(2-(3-Acetyl-5-((5-methylpyrimidin-2-yl)oxy)-1H-indazol-1-yl)acetyl)-N-(6-bromo-3-methylpyridin-2-yl)-4-fluoropyrrolidine-2-carboxamide] was tested, and the IC50 was under 1000 nM. `CC(=O)c1nn(CC(=O)N2[C@@H]3C[C@@H]3C[C@H]2C(=O)Nc2nc(Br)ccc2C)c2ccc(Oc3ncc(C)cn3)cc12` [Compound 173, (1R,3S,5R)-2-(2-(3-Acetyl-5-((5-methylpyrimidin-2-yl)oxy)-1H-indazol-1-yl)acetyl)-N-(6-bromo-3-methylpyridin-2-yl)-2-azabicyclo[3.1.0]hexane-3-carboxamide] showed an IC50 of under 1000 nM. `COc1cc(Br)nc(NC(=O)[C@@H]2C[C@@H](F)CN2C(=O)Cn2nc(C(C)=O)c3cc(Oc4ncc(C)cn4)ccc32)c1` [Compound 174, (2S,4R)-1-(2-(3-Acetyl-5-((5-methylpyrimidin-2-yl)oxy)-1H-indazol-1-yl)acetyl)-N-(6-bromo-4-methoxypyridin-2-yl)-4-fluoropyrrolidine-2-carboxamide] showed an IC50 of under 1000 nM. `CC(=O)c1nn(CC(=O)N2C[C@H](F)C[C@H]2C(=O)Nc2cccc(Br)n2)c2ccc(Oc3cnc(C)cn3)cc12` [Compound 175, (2S,4R)-1-(2-(3-Acetyl-5-((5-methylpyrazin-2-yl)oxy)-1H-indazol-1-yl)acetyl)-N-(6-bromopyridin-2-yl)-4-fluoropyrrolidine-2-carboxamide] showed an IC50 of under 1000 nM. In the case of `CC(=O)c1nn(CC(=O)N2C[C@H](F)C[C@H]2C(=O)Nc2ccc(F)c(Br)n2)c2ccc(Oc3ncc(C)cn3)cc12` [Compound 176, (2S,4R)-1-(2-(3-Acetyl-5-((5-methylpyrimidin-2-yl)oxy)-1H-indazol-1-yl)acetyl)-N-(6-bromo-5-fluoropyridin-2-yl)-4-fluoropyrrolidine-2-carboxamide], the IC50 is reported as under 1000 nM. For `CC(=O)c1nn(CC(=O)N2[C@@H]3C[C@@H]3C[C@H]2C(=O)Nc2ccc(F)c(Br)n2)c2ccc(Oc3ncc(C)cn3)cc12` [Compound 177, (1R,3S,5R)-2-(2-(3-Acetyl-5-((5-methylpyrimidin-2-yl)oxy)-1H-indazol-1-yl)acetyl)-N-(6-bromo-5-fluoropyridin-2-yl)-2-azabicyclo[3.1.0]hexane-3-carboxamide], the IC50 was under 1000 nM. For `CC(=O)c1nn(CC(=O)N2C[C@H](F)C[C@H]2C(=O)Nc2ccc(F)c(Br)n2)c2ccc(Oc3cnc(C)cn3)cc12` [Compound 178, (2S,4R)-1-(2-(3-Acetyl-5-((5-methylpyrazin-2-yl)oxy)-1H-indazol-1-yl)acetyl)-N-(6-bromo-5-fluoropyridin-2-yl)-4-fluoropyrrolidine-2-carboxamide], the IC50 was under 1000 nM. For `CC(=O)c1nn(CC(=O)N2C[C@H](F)C[C@H]2C(=O)Nc2nc(Br)ccc2C)c2ccc(Oc3cnc(C)cn3)cc12` [Compound 179, (2S,4R)-1-(2-(3-Acetyl-5-((5-methylpyrazin-2-yl)oxy)-1H-indazol-1-yl)acetyl)-N-(6-bromo-3-methylpyridin-2-yl)-4-fluoropyrrolidine-2-carboxamide], the IC50 was under 1000 nM. Work on `CC(=O)c1nn(CC(=O)N2C[C@H](F)C[C@H]2C(=O)Nc2cccc(Br)n2)c2ccc(Oc3cc(C)ncn3)cc12` [Compound 180, (2S,4R)-1-(2-(3-Acetyl-5-((6-methylpyrimidin-4-yl)oxy)-1H-indazol-1-yl)acetyl)-N-(6-bromopyridin-2-yl)-4-fluoropyrrolidine-2-carboxamide] yielded an IC50 of under 1000 nM. `CCOP(=O)(COc1ccc2c(c1)c(C(N)=O)cn2CC(=O)N1[C@@H]2CC[C@@H](C2)[C@H]1C(=O)Nc1cccc(C)n1)OCC` [Compound 182, diethyl (((3-Carbamoyl-1-(2-((1R,3S,4S)-3-((6-methylpyridin-2-yl)carbamoyl)-2-azabicyclo[2.2.1]heptan-2-yl)-2-oxoethyl)-1H-indol-5-yl)oxy)methyl)phosphonate] showed an IC50 of over 10000 nM. In the case of `Cc1cccc(NC(=O)[C@@H]2[C@H]3CC[C@H](C3)N2C(=O)Cn2cc(C(N)=O)c3cc(OCP(=O)(O)O)ccc32)n1` [Compound 183, (((3-carbamoyl-1-(2-((1R,3S,4S)-3-((6-methylpyridin-2-yl)carbamoyl)-2-azabicyclo[2.2.1]heptan-2-yl)-2-oxoethyl)-1H-indol-5-yl)oxy)methyl)phosphonic acid], the IC50 is reported as over 10000 nM.
